In patent US20230257351A1, “SUBSTITUTED N-[…] HAVING P2X4 RECEPTOR ANTAGONISTIC ACTIVITY” (Bayer Aktiengesellschaft, priority 2020, published 2023):

How the values were obtained:
[1] = molecular target: T1, rat P2X4 (Rattus norvegicus, UniProt P51577); test: FLIPR Method for Rat P2X4 1321N1 Astrocytoma Cells; assay type: cell-based; conditions: 1321N1 stably expressing rat P2X4; agonist MgATP 5 μM (EC80)
T1 construct: expressed in transfected cells
T1 sequence (P51577 1-388): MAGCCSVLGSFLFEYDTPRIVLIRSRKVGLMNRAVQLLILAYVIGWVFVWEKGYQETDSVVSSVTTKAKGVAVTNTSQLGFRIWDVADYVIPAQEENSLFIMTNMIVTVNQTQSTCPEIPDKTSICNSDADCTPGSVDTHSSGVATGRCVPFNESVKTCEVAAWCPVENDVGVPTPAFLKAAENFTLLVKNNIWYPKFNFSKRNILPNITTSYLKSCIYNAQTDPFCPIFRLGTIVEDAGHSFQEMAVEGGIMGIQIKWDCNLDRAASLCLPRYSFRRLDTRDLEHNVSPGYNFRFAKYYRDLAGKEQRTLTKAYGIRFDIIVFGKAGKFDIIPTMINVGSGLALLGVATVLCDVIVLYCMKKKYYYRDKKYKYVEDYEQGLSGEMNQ
Summary of the method: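 1321N1 cells stably expressing rat P2X4, Fluo8-AM loaded; compounds (25 μM to 1 nM final, ten concentrations) preincubated 30 min at room temperature, then MgATP added at 5 μM (EC80). Calcium fluorescence read on FLIPR before and after agonist; triplicate data normalized to agonist control, four-parameter fit gives IC50.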

[2] = system: neuropathic mechanical allodynia induced by CCI surgery; test: Chronic Constriction Injury (CCI) Neuropathic Pain Model in Rats with Pain Behavior Read Out; assay type: in vivo, male Sprague-Dawley rats; conditions: rat CCI, von Frey, BID p.o. days 0 through 9
Procedure: Aim of the study was to test the efficacy of example 68 at ameliorating neuropathic mechanical allodynia. Male Sprague-Dawley rats were subject to chronic constriction injury of the sciatic nerve to induce neuropathic pain. Of those rats, 10 per group were assigned to treatment conditions involving BID drug administration for 10 days and behavioral assessment of mechanical sensitivity for allodynia with von Frey testing (vF). Behavior was assessed pre- and postdosing on Days 0, 2, 5, and 9. Rats were treated with Vehicle or test article BID on days 0 through 9, and rats in the gabapentin treatment group received gabapentin SID on days 0, 2, 5, and 9 in conjunction with behavioral assessment.
As vehicle Solutol/DMSO/WFI (40/10/50) was employed. Application volume for the per oral administration was 10 ml/kg.
Neuropathy was induced in male Sprague-Dawley rats by tying four loose ligatures of chromic gut around the common sciatic nerve in deeply anesthetized rats like described in Bennett, G. J., and Y. K. Xie. “A Peripheral Mononeuropathy in Rat That Produces Disorders of Pain Sensation like Those Seen in Man.” Pain 33 (1988): 87-107.
Mechanical allodynia was measured using 8 Semmes-Weinstein filaments (Stoelting©; Wood Dale, Ill., USA) with varying stiffness (0.4, 0.6, 1.0, 2.0, 4.0, 6.0, 8.0, and 15 g) according to the up-down method1. Animals were placed in individual acrylic chambers on a metal mesh surface and allowed to acclimate to their surroundings for a minimum of 15 minutes before testing. Each filament was presented perpendicular to the plantar surface with sufficient force to cause slight buckling against the paw and held for approximately 6 seconds or until a positive response is noted (paw sharply withdrawn).
Testing was initiated with the 2.0 g filament. In the absence of a paw withdrawal response, the next stronger stimulus was presented. In the event of paw withdrawal, the next weaker stimulus was used. […]
The 50% response threshold is calculated using the formula: […]

[3] = system: intraplantar Complete Freund's Adjuvant (CFA)-induced acute inflammatory pain; test: CFA Inflammation Model in Rats with Pain Behaviour Read Out; assay type: in vivo, male Sprague Dawley rats; conditions: for PWT 2 hour-post drug: mean PWT
Procedure: Compound was tested in the model of intraplantar Complete Freund's Adjuvant (CFA)-induced acute (48-hours setting) inflammatory pain in male Sprague Dawley rats. Briefly, 25 μl of CFA at 1 mg/ml was injected into the plantar surface of one hind paw. Mechanical hyperalgesia was measured using the Pressure Application Measurement apparatus (Ugo Basile, Gemonio, Italy). A linearly increasing pressure was applied to an area of approximately 50 mm^2 of the plantar side of the hind paw until a behavioural response (paw withdrawal) was observed or until the pressure reached 1000 grams of force (gf). The pressure at which the behavioural response occurred was recorded as the “Paw Withdrawal Threshold” (PWT). Both CFA-injected and contralateral PWTs were determined for each rat, in each treatment group and at each time point of the studies. The measurements were performed blinded. […] Compound or vehicle (10% DMSO, 40% Solutol, 50% water for injection, vol/vol) were dosed via oral route (p.o.) once daily (QD) or twice daily (BID) during 3 days, starting before CFA injection. Data were expressed as the mean PWT for each treatment group and at each time point. PWT data were analysed by performing a two way ANOVA with repeated measures (time×treatment). Planned comparison of means (each versus vehicle) was performed by using a Dunnett's post hoc test, provided that a main effect was detected. For p values less than 0.05, the results were deemed to be statistically significant.

For `CC(=O)N(c1ccc(F)c(F)c1)c1cc(NC(=O)Cc2ccc(F)cc2Cl)ccn1` [Example 68, N-{4-[2-(2-chloro-4-fluorophenyl)acetamido]pyridin-2-yl}-N-(3,4-difluorophenyl)acetamide], the IC50 [1] was 233 nM, the “Rat P2X4 1321N1 Astrocytoma Cells (FLIPR Assay) avg Efficacy” value [1] was 89% and the “mechanical allodynia induced by CCI surgery” value [2] was “decreased mechanical allodynia”. The “50% paw withdrawal threshold” value ([2]; 30 and 100 mg/kg (FIG. 1)) was “increased 50% paw withdrawal threshold significantly”, the “PWT 2 hour-post drug” value ([3]; rat CFA, 10 mg/kg BID p.o. during 3 days) was 630 gf and the “PWT 2 hour-post drug” value ([3]; rat CFA, 30 mg/kg BID p.o. during 3 days) was 648 gf. For the same molecule, the “PWT 2 hour-post drug” value ([3]; rat CFA, 100 mg/kg BID p.o. during 3 days) was 759 gf, the pain after treatment ([3]; rat CFA, 10, 30 and 100 mg/kg doses BID, 2 hours after last administration) was “significantly reduced pain” and the “development of inflammatory pain after the injection of CFA” value ([3]; rat, oral administration BID during 3 days) was “prevented the development of inflammatory pain”.
